# Legend:
# Type in all cases: in vivo, human
# [1] = tested on: resected PDAC; test: DSS and RFS of post-operatively treated resected PDAC patients, external cohort stratified by gemcitabine-response signature (Example 4); details: external cohort (45 patients)
# Text: Digitized histological hematoxylin and cosin stained tissue microarray blocks corresponding to post-operatively treated resected PDAC patients from 2011-2015 were used in this experiment. Of the 45 patients, 22 were neoadjuvantly treated with either gemcitabine or 5-FIU backbone cytotoxic chemotherapy. Using the histologic images, the AI-based pathology platform extracted nuclei images from tissue regions using segmentation models and computed geometric features of these nuclei. Patients were stratified by the signature previously associated with gemcitabine response in a dataset into low and high risk groups, and Disease Specific Survival (DSS) and Recurrence Free Survival (RFS) was compared between the stratified groups via Kaplan Meier estimators and log-rank test.
# [2] = tested on: resected pancreatic ductal adenocarcinoma (PDAC); test: DSS after adjuvant gemcitabine in resected PDAC, TCGA test set stratified by VPG signature
# Text: Data from three cohorts of patients were utilized for this experiment: a cohort of 93 patients forming a training data set, a cohort of 46 patients forming a first external data set, and a cohort of 161 patients forming a second external data set. The training data set was identified by selecting PDAC patients who had received adjuvant gemcitabine and no 5-fluorouracil. The training data set included available histopathologic images, data on disease specific survival, and demographic details. From the available histopathologic images, the image identified as the diagnostic slide was used for image analysis by the AI-based pathology platform. Scanned histologic images were analyzed through an AI-based pathology platform in accordance with the systems and methods described herein. The process included tissue segmentation, nuclei segmentation, and finally geometric feature extraction. Tissue was segmented via color-based thresholding to remove empty regions of the slide. Patches of size 2132×2132 were extracted from tissue regions and a validated deep learning model developed was used to segment and classify each nucleus automatically into five classes (i.e., Neoplastic, Connective, No-Neoplastic/Epithelial, Necrotic, Inflammatory). Descriptive morphometric features were then computed for each nucleus. Geometric features were then aggregated first at the patch, and subsequently at the patient level using summary statistics including the mean, standard deviation, skewness and kurtosis to produce the final feature vector for a patient. This feature vector was used as the input to a cox proportional hazards model that used the least absolute shrinkage and selection operator to identify the most correlated features with DSS along with their coefficients on the training set. FIG. 9 provides an illustration of a process to construct a histologic signature associated with disease-specific survival (DSS) after adjuvant gemcitabine. A dataset of scanned whole slide images and the associated clinical data from a cohort of 93 PDAC patients treated with adjuvant gemcitabine in The Cancer Genome Atlas (TCGA) was analyzed. The process to construct a histologic signature includes obtaining a slide 901, digitizing a slide 903, and determining the presence or absence of a histologic biomarker 905. Slides may be obtained in step 901 by resection of pancreatic ductal adenocarcinoma (PDAC). The slides may then then be digitized in step 903 by scanning hematoxylin and eosin-stained resection specimens for whole slide images and subsequently performing digital pathology analysis. […]
# [3] = tested on: resected PDAC tumors; test: DSS of resected PDAC patients receiving gemcitabine, divided into two histological subtypes by the model (Example 3)
# Text: One hundred and thirty-nine (139) whole-slide digitized histological slides corresponding to one hundred and two (102) resected PDAC tumors from a data set were used as a training set. This dataset corresponded to patients that had received either gemcitabine-backbone or 5 FU-backbone chemotherapy as their first-line adjuvant treatment. An AI-based pathology platform such as the one described herein was used to extract nuclei images from tissue regions using segmentation models and compute geometric features of these nuclei. The subsequent features were then correlated with Disease Specific Survival (DSS) in order to construct a signature associated with treatment benefit. The resulting signature was compared against two board certified pathologists using the grade of the digital slides images to classify patients into above or below average DSS buckets.
# [4] = tested on: resected pancreatic ductal adenocarcinoma (PDAC); test: DSS and time to recurrence after adjuvant gemcitabine in resected PDAC, external cohort stratified by VPG signature; details: for median time to recurrence: adjuvant gemcitabine-based therapy (n=46)
# Text: The first external data set represented a set of consecutive 24 patients treated with resection and adjuvant gemcitabine. Clinical data was obtained via manual chart review of the electronic medical record. Digitally scanned tissue microarray specimens were used for image analysis. The cores were 1 mm and were obtained from formalin-fixed, paraffin-embedded (FFPE) samples of extra portions of surgical resections. Whole tissue resection specimens were not available for analysis for this study. Scanned histologic images were analyzed through an AI-based pathology platform in accordance with the systems and methods described herein. The process included tissue segmentation, nuclei segmentation, and finally geometric feature extraction. Tissue was segmented via color-based thresholding to remove empty regions of the slide. Patches of size 2132×2132 were extracted from tissue regions and a validated deep learning model developed was used to segment and classify each nucleus automatically into five classes (i.e., Neoplastic, Connective, No-Neoplastic/Epithelial, Necrotic, Inflammatory). Descriptive morphometric features were then computed for each nucleus. Geometric features were then aggregated first at the patch, and subsequently at the patient level using summary statistics including the mean, standard deviation, skewness and kurtosis to produce the final feature vector for a patient. This feature vector was used as the input to a cox proportional hazards model that used the least absolute shrinkage and selection operator to identify the most correlated features with DSS along with their coefficients on the training set. Subsequently, the performance of the signature in stratifying patients was assessed in two external validation cohorts. A first external cohort 1005 included 45 patients who underwent PDAC resection followed by gemcitabine treatment for whom digitally scanned tissue microarrays of tumor specimens were available. A second external cohort 1007 included 161 patients, whose tumors were resected between 1978 and 2008, when adjuvant treatment was not administered as part of the standard of care. To investigate performance beyond the [NT], experiments applying the model in a retrospective cohort of adjuvant-gemcitabine-treated patients and a retrospective cohort of untreated patients were performed. As illustrated in FIGS. 17A-17D, the VPG signature generalizes to external cohorts of gemcitabine-treated patients but not untreated patients.
compound,measurement,setting,value
Nc1ccn([C@@H]2O[C@H](CO)[C@@H](O)C2(F)F)c(=O)n1 [gemcitabine],median DSS,[1]; high risk group,16 months
same,median RFS,[1]; high risk group,9.1 months
same,median DSS,[1]; low risk group,43 months
same,median RFS,[1]; low risk group,22.6 months
same,median DSS,"[2]; TCGA validation subset (47 patients), negative VPG signature",16.0 months
same,median DSS,"[2]; TCGA validation subset (47 patients), positive VPG signature",67.9 months
same,median DSS,"[2]; sub-group of 39 validation patients with RNAseq data, negative VPG signature",16.0 months
same,median DSS,"[2]; sub-group of 39 validation patients with RNAseq data, positive VPG signature",67.9 months
same,median DSS,[3]; first histological subtype (threshold: average expected lifetime),586 days
same,median DSS,[3]; second histological subtype (threshold: average expected lifetime),394 days
same,median time to recurrence,[4]; negative VPG signature,9.1 months
same,median time to recurrence,[4]; positive VPG signature,22.6 months
same,median DSS,"[4]; adjuvant gemcitabine-based therapy, external cohort (n=46), negative VPG signature",16 months
same,median DSS,"[4]; adjuvant gemcitabine-based therapy, external cohort (n=46), positive VPG signature",43.1 months
same,median DSS,"[4]; external cohort, no therapy prior to surgery (n=24), negative VPG signature",12.9 months
same,median DSS,"[4]; external cohort, no therapy prior to surgery (n=24), positive VPG signature",40.2 months

# Reference: patent US20260221281A1, “PREDICTING PATIENT OUTCOMES RELATED TO PANCREATIC CANCER” (Valar Labs, Inc., priority 2023, published 2026)
